Results from US20060079453A1, “Hla binding peptides and their uses” (priority 2002, published 2006).
Read-outs that look alike come from different tables or passages of the source. No end group written: not given here.

Legend:
Experiment in all cases: biochemical
Format in all cases: binding
HLA-DR DRB1*0101 (DR1) = HLA-DR DRB1*0101 (DR1) (Homo sapiens, UniProt P01903+P01911, A100R/D57E/F55L/F60I/F76Y/I96L/L162R/M171V/P40L/Q125E/R42F/V115G/Y59C)
HLA-DR DRB1*0405 (DR4) = HLA-DR DRB1*0405 (DR4) (Homo sapiens, UniProt P01903+P01911, A100R/A169T/D86S/F76Y/I96L/K127E/L162R/M171V/N62H/P40V/Q125Y/R42H/S133A/S149N/S66Y/V115G/V209L/W38E)
HLA-DR DRB1*0901 (DR9) = HLA-DR DRB1*0901 (DR9) (Homo sapiens, UniProt P01903+P01911, A100R/A103E/D57H/D86V/F55Y/F60I/F76Y/I96F/K127E/L162R/M171V/P40D/Q125H/Q99R/R33Q/R42F/S133A/S66N/T210M/V115G/W38K/Y107V/Y59G/Y89S)
HLA-DR DRB1*1101 (DR11) = HLA-DR DRB1*1101 (DR11) (Homo sapiens, UniProt P01903+P01911, A100R/A169T/A87E/I96F/K41T/L162R/M171V/P40S/Q125H/Q178H/Q39Y/Q99D/R42S/S66Y/T262R/V115G/W38E); details: DRB1 *1101
HLA-DR DRB1*1101 (DR11), sequence (P01903 26-254 limits assumed, other chains not shown): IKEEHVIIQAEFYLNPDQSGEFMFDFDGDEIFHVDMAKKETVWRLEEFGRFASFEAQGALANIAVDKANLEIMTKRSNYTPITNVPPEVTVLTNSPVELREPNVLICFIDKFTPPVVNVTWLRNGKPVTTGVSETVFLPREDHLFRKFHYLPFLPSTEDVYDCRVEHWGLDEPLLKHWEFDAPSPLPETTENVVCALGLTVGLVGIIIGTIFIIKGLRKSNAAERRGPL

HLA-DR DRB1*1302 (DR13) = HLA-DR DRB1*1302 (DR13) (Homo sapiens, UniProt P01903+P01911, A100E/A169T/K41T/L162R/M171V/P40S/Q125H/Q178H/Q39Y/Q99D/R42S/S66N/T262R/V115G/W38E/Y61H); details: DRBI *1302
HLA-DR DRB1*1302 (DR13), sequence (P01903 26-254 limits assumed, other chains not shown): as above

HLA-DR DRB1*1501 (DR15) = HLA-DR DRB1*1501 (DR15) (Homo sapiens, UniProt P01903+P01911); details: DRBI *1501
HLA-DR DRB5*0101 (DR51) = HLA-DR DRB5*0101 (DR51) (Homo sapiens, UniProt P01903+Q30154); details: DRB5 *0101
HLA-DR DRB4*0101 (DR53) = HLA-DR DRB4*0101 (DR53) (Homo sapiens, UniProt P01903+P13762, G164S); details: DRB4 *0101
HLA-DR DRB1*0401 (DR4) = HLA-DR DRB1*0401 (DR4) (Homo sapiens, UniProt P01903+P01911, A100K/A169T/F76Y/I96L/K127E/L162R/M171V/N62H/P40V/Q125Y/R42H/S133A/S149N/S66Y/V115G/V209L/W38E)
HLA-DR DRB1*0701 (DR7) = HLA-DR DRB1*0701 (DR7) (Homo sapiens, UniProt P01903+P01911, A100R/A102G/A103Q/D57E/D86V/E43K/F76Y/K127E/L162R/M171V/P40G/Q125H/Q99D/R33Q/R42Y/R54Q/S133A/S66F/T210M/V115G/Y107V/Y59L/Y89S)
HLA-DR DRB1*0301 (DR3) = HLA-DR DRB1*0301 (DR3) (Homo sapiens, UniProt P01903+P01911, A100K/A102G/A103R/A169T/F55Y/I96L/K41T/L162R/M171V/P40S/Q125H/Q178H/Q39Y/R42S/S66N/T106N/T262R/W38E/Y61H)
HLA-DR DRB1*0301 (DR3), sequence (P01903 26-254 limits assumed, other chains not shown): as above

HLA-A*0301 = HLA-A*0301 (Homo sapiens, UniProt P04439)
HLA-A*1101 = HLA-A*1101 (Homo sapiens, UniProt P04439, A114D/D185E/E176A/F33Y/L180Q/S129P/T187R)
HLA-A*1101, sequence (P04439 25-365 limits assumed, stated change not applied): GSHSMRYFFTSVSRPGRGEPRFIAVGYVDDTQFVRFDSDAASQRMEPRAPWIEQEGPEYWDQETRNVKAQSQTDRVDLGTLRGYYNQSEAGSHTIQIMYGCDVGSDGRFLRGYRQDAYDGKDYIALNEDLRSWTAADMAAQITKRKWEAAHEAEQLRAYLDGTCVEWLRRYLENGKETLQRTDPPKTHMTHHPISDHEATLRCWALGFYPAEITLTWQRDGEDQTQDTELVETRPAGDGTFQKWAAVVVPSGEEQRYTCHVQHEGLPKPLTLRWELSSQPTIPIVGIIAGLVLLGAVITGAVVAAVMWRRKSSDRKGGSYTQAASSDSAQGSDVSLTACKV

HLA-A*3101 = HLA-A*3101 (Homo sapiens, UniProt P04439, A270S/D185E/E176V/E277Q/F33T/G231S/G80R/H175R/I121M/I218V/I322F/K168Q/L300P/L318F/M331R/P217A/Q94H/R138Q/T323A/T345S/T97I/V358M)
HLA-A*3301 = HLA-A*3301 (Homo sapiens, UniProt P04439, A270S/D185E/E176V/E277Q/E87N/F33T/G231S/H175R/I121M/I218V/I322F/K168Q/K210R/L300P/L318F/M331R/P217A/Q86R/Q94H/R138Q/T323A/T345S/T97I/V358M/Y195H)
HLA-A*6801 = HLA-A*6801 (Homo sapiens, UniProt P04439, A269V/D185E/E176V/E277Q/E87N/F33Y/G231S/I121M/I166T/I218V/L180W/L300P/L318F/N151K/P208A/P217A/Q86R/R169H/T345S)

Molecule	IC50 (HLA-DR DRB1*0101 (DR1); DRB1 *0101) [nM]	IC50 (HLA-DR DRB1*0405 (DR4); DRB1 *0405) [nM]	IC50 (HLA-DR DRB1*0901 (DR9); DRB1 *0901) [nM]	IC50 (HLA-DR DRB1*1101 (DR11)) [µM]	IC50 (HLA-DR DRB1*1302 (DR13)) [nM]	IC50 (HLA-DR DRB1*1501 (DR15)) [nM]	IC50 (HLA-DR DRB5*0101 (DR51)) [µM]	IC50 (HLA-DR DRB4*0101 (DR53)) [nM]	IC50 (HLA-DR DRB1*0401 (DR4); DRB1 *0401) [nM]	IC50 (HLA-DR DRB1*0701 (DR7); DRB1 *0701) [µM]	IC50 (HLA-DR DRB1*0301 (DR3)) [µM]	also measured
TEVLDFAFTDLTIVY	2070	871	349	> 18	> 13100	561	> 62.3					
VFEFAFKDLFVVYRD	6720	120	16800		7670	4870	> 10.7	18100				
VPTLQDVVLELTPQT	16100	5410	> 30600	> 31.6	15000		> 31.4	1000	214	> 35.4		
LRAFQQLFLNTLSFV	1.5	8.3			1.01	20		2.2	7.4	0.075	0.648	
IDGVNHQHLPARRAE		> 17000	> 39900	> 56.2	> 11500	> 36800	12.6		34300	> 18.6		
QDVVLELTPQTEIDL		53	1680	> 31.6		> 33100	> 31.4	1720	83			
YYDYSVYGATLESIT	1010	230	1400	9.12		1110	> 51	32400				
CC[C@H](C)[C@H](NC(=O)[C@H](CO)NC(=O)[C@H](CC(=O)O)NC(=O)[C@H](CCCNC(=N)N)NC(=O)[C@H](Cc1ccc(O)cc1)NC(=O)[C@@H](NC(=O)[C@@H](NC(=O)[C@H](Cc1ccccc1)NC(=O)[C@@H](N)CC(C)C)C(C)C)C(C)C)C(=O)N1CCC[C@H]1C(=O)N[C@@H](Cc1c[nH]cn1)C(=O)N[C@@H](C)C(=O)N[C@@H](C)C(=O)N[C@@H](CS)C(=O)N[C@@H](Cc1c[nH]cn1)C(=O)O	131	690		1.58	697	437	7.85	3580	3	2	0.062	
EFAFKDLFVVYRDS												IC50 (HLA-DR DRB1*0401 (DR4); read-out: DRB1 *0401): 2220 nM; IC50 (HLA-DR DRB1*0405 (DR4); read-out: DRB1 *0405): 33 nM; IC50 (HLA-DR DRB1*0701 (DR7); read-out: DRB1 *0701): 3.69 µM
IQQLLMGTVNIYCPT												IC50 (HLA-DR DRB1*0101 (DR1); read-out: DRB1 *0101): 71 nM; IC50 (HLA-DR DRB1*0301 (DR3); read-out: DRB1 *0301): 93.7 µM; IC50 (HLA-DR DRB1*0405 (DR4); read-out: DRB1 *0405): 624 nM
VVQLDIQSTKEDLRV												IC50 (HLA-DR DRB1*0401 (DR4); read-out: DRB1 *0401): 11100 nM; IC50 (HLA-DR DRB1*0405 (DR4); read-out: DRB1 *0405): 46 nM; IC50 (HLA-DR DRB1*0701 (DR7); read-out: DRB1 *0701): 3.76 µM; IC50 (HLA-DR DRB1*0901 (DR9); read-out: DRB1 *0901): 13900 nM
LRIVYRDGNPFAVCK		557		0.109	123		6.82	1570	16	8.99		
DLFVVYRDSIPHAAC		3590	2370		11200	2830	10.7	2680	82	5.21		
RTAMFQDPQERPRKL	9370	7980	> 25300		17100	73200	7.47	20500	28200	32.9		
KKPLNEILIRCIICQ												IC50 (HLA-DR DRB1*0401 (DR4); read-out: DRB1 *0401): 315 nM; IC50 (HLA-DR DRB1*0405 (DR4); read-out: DRB1 *0405): 347 nM; IC50 (HLA-DR DRB1*0701 (DR7); read-out: DRB1 *0701): 7.97 µM
YDFVFADLRIVYRNG												IC50 (HLA-DR DRB1*0301 (DR3); read-out: DRB1 *0301): 0.013 µM; IC50 (HLA-DR DRB1*0401 (DR4); read-out: DRB1 *0401): 1910 nM; IC50 (HLA-DR DRB1*0405 (DR4); read-out: DRB1 *0405): 829 nM; IC50 (HLA-DR DRB1*0701 (DR7); read-out: DRB1 *0701): 21.4 µM
YLAMPFATPMEAELARRSLA	46	405			2810	865	0.641	1960	266		46.6	
RQDILDLWVYHTQGY	2390	1140		> 51.3	6780	723	16.2	1330	1200	1.63	98.3	
YKFLFTDLRIVYRDN	109	91		10.1	77	2910	0.8	1340		1.52	0.0088	
CC[C@H](C)[C@H](NC(=O)[C@@H](N)Cc1c[nH]c2ccccc12)C(=O)N[C@H](C(=O)N[C@@H](CCC(N)=O)C(=O)N[C@@H](CS)C(=O)N[C@@H](Cc1ccccc1)C(=O)N[C@@H](CC(C)C)C(=O)N1CCC[C@H]1C(=O)N[C@H](C(=O)N[C@@H](Cc1ccccc1)C(=O)N[C@@H](CC(C)C)C(=O)N[C@@H](C)C(=O)N[C@@H](CCC(N)=O)C(=O)N1CCC[C@H]1C(=O)N1CCC[C@H]1C(=O)N[C@@H](CO)C(=O)NCC(=O)N[C@@H](CCC(N)=O)C(=O)N[C@@H](CCCNC(=N)N)C(=O)N[C@@H](CCCNC(=N)N)C(=O)O)C(C)C)[C@@H](C)O	679	216							88	74.2	25.5	
CC(C)C[C@H](NC(=O)[C@H](CCC(N)=O)NC(=O)[C@H](CCC(N)=O)NC(=O)[C@H](CC(C)C)NC(=O)[C@@H](NC(=O)[C@H](CCCNC(=N)N)NC(=O)[C@@H](N)CC(C)C)[C@@H](C)O)C(=O)N[C@@H](Cc1ccccc1)C(=O)N[C@@H](CC(C)C)C(=O)N[C@@H](CO)C(=O)N[C@H](C(=O)N[C@@H](CC(C)C)C(=O)N[C@@H](CO)C(=O)N[C@@H](Cc1ccccc1)C(=O)N[C@H](C(=O)O)C(C)C)[C@@H](C)O	8.3	9		0.208	55	29	1.99	3.1	18	0.06	0.801	
HQAISPRTLNGPGPGSPAIF	1550	3110		9.87	638	5570	32.9	232		5.08	728	
HYCYSLYGTTLEQQY	546	76			> 13700	4850	> 10.7			9.86		
FVVYRDSIPK												IC50 (HLA-A*0301): 265 nM; IC50 (HLA-A*1101): 81 nM; IC50 (HLA-A*3101): 6.22 µM; IC50 (HLA-A*3301): 146 nM; IC50 (HLA-A*6801): 30 nM
